{"source": "patent US11477981B2", "about": "“Ice nucleation formulations for cryopreservation and stabilization of biologics” (The General Hospital Corporation, priority 2016, dated 2022)", "molecules": {"B1": {"name": "ice nucleation active (INA) protein: ice nucleation active protein InaZ of Pseudomonas syringae (UniProt P06620-1; SEQ ID NO: 1) (protein, listed as Pseudomonas syringae)", "chain": "MNLDKALVLRTCANNMADHCGLIWPASGTVESRYWQSTRRHENGLVGLLWGAGTSAFLSVHADARWIVCEVAVADIISLEEPGMVKFPRAEVVHVGDRISASHFISARQADPASTSTSTLTPMPTAIPTPMPAVASVTLPVAEQARHEVFDVASVSAAAAPVNTLPVTTPQNVQTATYGSTLSGDNHSRLIAGYGSNETAGNHSDLIAGYGSTGTAGSDSWLVAGYGSTQTAGGDSALTAGYGSTQTAREGSNLTAGYGSTGTAGSDSSLIAGYGSTQTSGGDSSLTAGYGSTQTAQEGSNLTAGYGSTGTAGSDSSLIAGYGSTQTSGGDSSLTAGYGSTQTAQEGSNLTAGYGSTGTAGVDSSLIAGYGSTQTSGSDSALTAGYGSTQTAQEGSNLTAGYGSTGTAGSDSSLIAGYGSTQTSGSDSSLTAGYGSTQTAQEGSILTAGYGSTGTAGVDSSLIAGYGSTQTSGSDSALTAGYGSTQTAQEGSNLTAGYGSTGTAGADSSLIAGYGSTQTSGSESSLTAGYGSTQTAREGSTLTAGYGSTGTAGADSSLIAGYGSTQTSGSESSLTAGYGSTQTAQQGSVLTSGYGSTQTAGAASNLTTGYGSTGTAGHESFIIAGYGSTQTAGHKSILTAGYGSTQTARDGSDLIAGYGSTGTAGSGSSLIAGYGSTQTASYRSMLTAGYGSTQTAREHSDLVTGYGSTSTAGSNSSLIAGYGSTQTAGFKSILTAGYGSTQTAQERTSLVAGYGSTSTAGYSSSLIAGYGSTQTAGYESTLTAGYGSTQTAQENSSLTTGYGSTSTAGYSSSLIAGYGSTQTAGYESTLTAGYGSTQTAQERSDLVTGYGSTSTAGYASSLIAGYGSTQTAGYESTLTAGYGSTQTAQENSSLTTGYGSTSTAGFASSLISGYGSTQTAGYKSTLTAGYGSTQTAEYGSSLTAGYGSTATAGQDSSLIAGYGSSLTSGIRSFLTAGYGSTLIAGLRSVLIAGYGSSLTSGVRSTLTAGYGSNQIASYGSSLIAGHESIQVAGNKSMLIAGKGSSQTAGFRSTLIAGAGSVQLAGDRSRLIAGADSNQTAGDRSKLLAGNNSYLTAGDRSKLTGGHDCTLMAGDQSRLTAGKNSVLTAGARSKLIGSEGSTLSAGEDSILIFRLWDGKRYRQLVARTGENGVEADIPYYVNEDDDIVDKPDEDDDWIEVK"}}, "key": {"[1]": {"assay": "Ice nucleation kinetics of picoliter-sized drops of D2O and H2O mixtures (droplet technology)", "assay_type": "physicochemical", "description": "FIG. 7. Probability distribution of ice nucleation temperature using nanodroplet technology, wherein condition 1 is pure heavy water containing 0.1 g/L SNOMAX, condition 2 is pure water containing 0.1 g/L SNOMAX, condition 3 is pure heavy water, and condition 4 is pure water.\nThis disclosure has also systematically investigated the ice nucleation kinetics of picoliter-sized drops of heavy water (e.g., D2O or T2O) and light water (H2O) mixtures with freeze-dried P. syringae. […] The disclosure further investigated the effects of commonly used cryoprotectants such as ethylene glycol, propylene glycol and trehalose on the freezing characteristics of D2O and H2O mixtures. […] Furthermore, several cryoprotectants are found to depress the freezing phenomenon. Both the homogeneous and heterogeneous freezing temperatures of these aqueous solutions depend on the water activity and are independent of the nature of solute.\nA self-nucleating and preservation formulation comprising heavy water and ice nucleating agents was developed with broad applications in the field of cryopreservation. […]"}, "animals and animal cells": {"tested_on": "animals and animal cells", "conditions": "at normal body temperatures; cited from earlier work"}, "[2]": {"conditions": "background statement; cited from earlier work"}}}
{"molecule": "[2H]O[2H]", "note": "[D2O]", "values": [{"measurement": "shift of the ice nucleation kinetics profile per 25% (v/v) increase of D2O concentration", "setting": "[1]; D2O+H2O mixtures containing 1 mg/ml SNOMAX", "result": "shifts by about one degree"}, {"measurement": "median nucleation temperature", "setting": "[1]; pure D2O, no ice nucleating agent, droplet technology", "result": "−32.1", "unit": "°C"}, {"measurement": "concentration that can be toxic", "setting": "animals and animal cells", "result": "more than 20%"}]}
{"molecule": "B1", "values": [{"measurement": "temperature at which water freezes", "setting": "[2]", "result": "−4 to −2", "unit": "°C"}]}
